Test results as given in patent publication US20050014193A1, “Identification of target-specific folding sites in peptides and proteins” (priority 2003, published 2005).
Square brackets hold non-standard residues; d marks the D form. Peptide text beside a SMILES is read from it. Nle = CCCC[C@H](N)C(=O)O

Experiments:
MC1-R = biological target: T1, MC1-R (Mus musculus, UniProt Q01727); assay: Competitive inhibition of 125I-NDP-alpha-MSH binding, B-16 mouse melanoma cell membranes
T1 construct: B-16 mouse melanoma cells (containing MC1-R); endogenous in cells; host or cells: B-16 mouse melanoma cells (membranes)
From the text: (§1) Ac-Nle-Ala-His-D-Phe-Arg-Trp-NH2 is a known receptor-binding sequence for melanotropin receptors. […] A series of metallopeptides based on this sequence were synthesized by inserting a Cys residue after the 2 position and through the n+1 position and complexing the resulting Cys-containing peptide with an Re-oxo metal ion core as described Example 1. The resulting metallopeptides were screened for inhibiting the binding of 125-I-NDP-alpha-MSH radioligand using B-16 mouse melanoma cells for MCR-1 and cloned human MCR-2, -3 and -4 receptor transfected 293 cells.
(§2) The competitive inhibition binding assay was conducted using membranes prepared from hMC3-R, hMC4-R, hMC5-R, and B-16 mouse melanoma cells (containing MC1-R) using 0.4 nM ^125I-NDP-alpha-MSH (New England Nuclear, Boston, Mass., USA) in 50 mM HEPES buffer containing 1 mM MgCl2, 2 mM CaCl2, and 5 mM KCl, at pH 7.2. The assay tube also contained a chosen concentration of the test peptide of this invention, complexed to a rhenium metal ion as indicated, for determining its efficacy in inhibiting the binding of ^125I-NDP-alpha-MSH to its receptor. […] The filter was dried and counted in a gamma counter for remaining radioactivity bound to the membranes. 100% specific binding was defined as the difference in radioactivity (cpm) bound to cell membranes in the absence and presence of 1 μM alpha-MSH. […]

hMC4-R = biological target: T2, hMC4-R (Homo sapiens, UniProt P32245); assay: Competitive inhibition of 125I-NDP-alpha-MSH binding, hMC4-R membranes
T2 construct: expressed in transfected cells; host or cells: 293 cells
From the text: as §1, §2

uPA receptor = biological target: T3, uPA receptor (Homo sapiens, UniProt Q03405); assay: uPA receptor-binding assay using U937 cells and ATF as competitive ligand; conditions: within the Table 1 series
T3 construct: endogenous in cells; host or cells: U937 cells
T3 sequence (Q03405 23-305): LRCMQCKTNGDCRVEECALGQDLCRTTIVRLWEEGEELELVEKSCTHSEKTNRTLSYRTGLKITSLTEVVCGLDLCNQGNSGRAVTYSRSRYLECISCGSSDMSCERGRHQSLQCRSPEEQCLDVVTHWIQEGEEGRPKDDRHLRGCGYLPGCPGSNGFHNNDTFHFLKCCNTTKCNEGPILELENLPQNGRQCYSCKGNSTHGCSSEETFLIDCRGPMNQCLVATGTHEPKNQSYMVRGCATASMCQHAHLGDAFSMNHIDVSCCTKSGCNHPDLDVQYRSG

T1 sequence (Q01727 whole entry): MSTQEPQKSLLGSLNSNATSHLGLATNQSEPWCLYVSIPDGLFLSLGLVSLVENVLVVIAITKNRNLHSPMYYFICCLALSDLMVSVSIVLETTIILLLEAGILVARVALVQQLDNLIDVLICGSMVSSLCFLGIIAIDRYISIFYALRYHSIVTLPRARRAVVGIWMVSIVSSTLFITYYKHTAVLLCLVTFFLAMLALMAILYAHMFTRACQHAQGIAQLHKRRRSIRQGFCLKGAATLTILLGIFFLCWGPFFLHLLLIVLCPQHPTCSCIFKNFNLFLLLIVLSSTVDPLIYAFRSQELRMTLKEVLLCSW
T2 sequence (P32245 whole entry): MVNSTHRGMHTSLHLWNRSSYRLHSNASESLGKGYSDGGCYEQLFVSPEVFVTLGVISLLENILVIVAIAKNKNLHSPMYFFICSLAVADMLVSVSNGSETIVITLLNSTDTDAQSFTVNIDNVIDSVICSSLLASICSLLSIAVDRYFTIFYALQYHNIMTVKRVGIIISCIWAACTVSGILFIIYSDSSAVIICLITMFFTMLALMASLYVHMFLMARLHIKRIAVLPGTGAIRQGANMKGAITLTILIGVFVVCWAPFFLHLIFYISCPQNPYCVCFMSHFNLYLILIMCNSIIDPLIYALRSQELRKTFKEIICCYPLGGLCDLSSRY

Compound | Ki (MC1-R) | Ki (hMC4-R) | relative potency in uPA receptor binding (uPA receptor)
CCCC[C@H](NC(C)=O)C(=O)N[C@@H](C)C(=O)N[C@@H](Cc1c[nH]cn1)C(=O)N[C@H](Cc1ccccc1)C(=O)N[C@@H](CCCNC(=N)N)C(=O)N[C@@H](Cc1c[nH]c2ccccc12)C(N)=O [Ac-Nle-Ala-His-D-Phe-Arg-Trp-NH2] (Ac-[Nle]AH[dF]RW-NH2) | 100 nM | 2000 nM | –
Ac-Val-Ser-Asn-Lys-Tyr-Phe-Ser-Asn-Ile-His-Cys-Trp-NH2 (Ac-VSNKYFSNIHCW-NH2; not fully specified (bridges); printed as Ac-Val-Ser-Asn-Lys-Tyr-Phe-Ser-Asn-Ile-His-Cys-Trp-NH2; also: oxorhenium(V) N3S1 metal chelate (Re=O)) [SEQ ID NO: 3] | – | – | most potent of all these molecules
